Laboratory results: US20060252733A1, “Betulin, betulin derivatives, betulinic acid and betulinic acid derivatives as novel therapeutics in the treatment of disease of lipid and/or glucose metabolism” (Novelix Pharmaceuticals, Inc., priority 2005, published 2006)

What was measured:
[1] = tested on: hepatic low density lipoprotein (LDL) receptors; details: animals; by increasing the expression of hepatic LDL receptors; cited from earlier work
[2] = tested on: human melanoma cell line (518A2); experiment: Cell survival (cell counts) after 3 days of treatment; details: 3 days, vs untreated controls (=100%)
Method: Induction of cell death was evaluated in a human melanoma cell line (518A2) in the presence of simvastatin and NVX-207 alone or in combination. […] After 3 days of treatment, cell numbers were counted. Percentages of survival given are cell numbers compared to untreated controls (=100%). Experiments were repeated three times. Mean values are given.

Row | Compound | plasma cholesterol levels [1] | Survival (%) ([2]; Simvastatin 0.5 μmol) | Survival (%) ([2]; Simvastatin 1.0 μmol) | Survival (%) ([2]; Simvastatin 2.0 μmol) | Survival (%) ([2]; Simvastatin 4.0 μmol)
1 | C=CC[C@@H]1[C@H](O)CC[C@@]2(C)[C@H]1CC[C@@H]1[C@@H]2CC[C@]2(C)[C@@H]([C@H](C)CCCC(C)C)CC[C@@H]12 [LY295427] | reduce plasma cholesterol levels |  |  |  | 
2 | CCC(C)(C)C(=O)O[C@H]1C[C@@H](C)C=C2C=C[C@H](C)[C@H](CC[C@@H]3C[C@@H](O)CC(=O)O3)[C@H]21 [Simvastatin, reference compound] |  | 96 | 40 | 12 | 3
